This passage reports IC50 results from US9340577B2, “HLA binding motifs and peptides and their uses” (priority 1992, dated 2016).

Holding throughout (experiment): biochemical
Common to all, as to format: binding

The target of test [1] is A31 (A*3101) (Homo sapiens, UniProt P04439, A270S/D185E/E176V/E277Q/F33T/G231S/G80R/H175R/I121M/I218V/I322F/K168Q/L300P/L318F/M331R/P217A/Q94H/R138Q/T323A/T345S/T97I/V358M).
For test [2], the target named is HLA-A11 (A*1101) (Homo sapiens, UniProt P04439, A114D/D185E/E176A/F33Y/L180Q/S129P/T187R).
Test [3] concerns the target A*6801 (Homo sapiens, UniProt P04439, A269V/D185E/E176V/E277Q/E87N/F33Y/G231S/I121M/I166T/I218V/L180W/L300P/L318F/N151K/P208A/P217A/Q86R/R169H/T345S).
For test [4], the target named is A*3301 (Homo sapiens, UniProt P04439, A270S/D185E/E176V/E277Q/E87N/F33T/G231S/H175R/I121M/I218V/I322F/K168Q/K210R/L300P/L318F/M331R/P217A/Q86R/Q94H/R138Q/T323A/T345S/T97I/V358M/Y195H).

No end group written: not given here. Some results are limits rather than exact numbers.

With GTTLEQQYNK [Peptide 78.0044], the concentration for half-maximal inhibition (IC50) (as a rule, the concentration at which inhibition is half-maximal) in test [1] is greater than 20 µM; in test [2], 0.069 µM; in test [3] it was 3.94 µM; in test [4] it was greater than 20 µM.

Take TLTYISTSQR [Peptide 88.0211]: the IC50 in test [1] worked out at 0.688 µM; in test [2], 8.27 µM; in test [3], 0.056 µM; in test [4], 1.01 µM.

With KVSEFRWYRY [Peptide 78.0053], the IC50 in test [1] was 0.011 µM; in test [2], 0.024 µM; in test [3], 1.91 µM; in test [4] it was 7.07 µM.

Regarding GTRQARKNR [Peptide 9017.0071], the IC50 in test [1] is 0.024 µM; in test [2] it was 8.35 µM; in test [3], greater than 20 µM; in test [4], 5.07 µM.

For the compound `CC(C)C[C@H](NC(=O)[C@H](CCCNC(=N)N)NC(=O)[C@H](CCC(=O)O)NC(=O)[C@H](CCC(N)=O)NC(=O)[C@H](CCCNC(=N)N)NC(=O)[C@H](C)NC(=O)[C@@H](N)CCCNC(=N)N)C(=O)N[C@@H](CCC(N)=O)C(=O)N[C@@H](CCCNC(=N)N)C(=O)O` [Peptide 78.0311], the half-inhibitory concentration (IC50) in test [1] is 0.35 µM; in test [2], greater than 20 µM; in test [3], greater than 20 µM; in test [4] it was greater than 20 µM.

As to KISEYRHYQY [Peptide 1571.14], the IC50 was 7.22 µM in test [1], 0.392 µM in test [2], 11.7 µM in test [3] and greater than 20 µM in test [4].

Turning to YLTAPTGCLK [Peptide 1589.15], the IC50 was greater than 20 µM in test [1], 0.573 µM in test [2], 2.56 µM in test [3] and greater than 20 µM in test [4].

With KVCLRLLSK [Peptide 78.0302], the concentration for half-maximal inhibition (IC50) was 0.525 µM in test [1], 0.23 µM in test [2], greater than 20 µM in test [3] and greater than 20 µM in test [4].

As to ATCALYWYR [Peptide 88.0371], the IC50 in test [1] worked out at 0.019 µM; in test [2] it was 0.018 µM; in test [3], 0.12 µM; in test [4], 0.015 µM.

On to VTVYDGVPVWK [Peptide 1539.09], for which the IC50 in test [1] is 18.3 µM; in test [2], 0.019 µM; in test [3], 0.362 µM; in test [4], greater than 20 µM.

Take RQLFLNTVK [Peptide 1589.44]: the concentration for half-maximal inhibition (IC50) in test [1] is 0.087 µM; in test [2] it was 0.039 µM; in test [3] it was 16.2 µM; in test [4], greater than 20 µM.

For the compound QVNCKGIYY [Peptide 88.0408], the IC50 in test [1] was greater than 20 µM; in test [2], 1.62 µM; in test [3] it was greater than 20 µM; in test [4] it was greater than 20 µM.

As for VTVYYGVPVRR [Peptide 1525.07], the IC50 in test [1] was 0.059 µM; in test [2], 0.271 µM; in test [3] it was 0.032 µM; in test [4], 0.795 µM.

Turning to ALQGLAQSR [Peptide 88.0398], the IC50 in test [1] is 0.311 µM; in test [2] it was 2.76 µM; in test [3], 11.3 µM; in test [4], greater than 20 µM.

For KQLCDLLIR [Peptide 1513.14], the IC50 is 0.024 µM in test [1], 1.68 µM in test [2], greater than 20 µM in test [3] and 6.9 µM in test [4].

In the case of IVVSAELPK [Peptide 1556.19], the concentration for half-maximal inhibition (IC50) in test [1] is greater than 20 µM; in test [2], 0.093 µM; in test [3], 0.218 µM; in test [4] it was greater than 20 µM.

For the compound NTMHYTNWK [Peptide 1589.16], the IC50 stood at 4.92 µM in test [1], 0.011 µM in test [2], 0.011 µM in test [3] and 0.402 µM in test [4].

Take RVHSSHLKSKK [Peptide 1556.75]: the IC50 in test [1] turned out to be 0.3 µM; in test [2], 0.02 µM; in test [3] it was 2.15 µM; in test [4] it was 12 µM.

For the compound SSLARRHMAR [Peptide 9017.0193], the 50% inhibitory concentration (IC50) in test [1] came to 0.0048 µM; in test [2], 0.928 µM; in test [3], 0.869 µM; in test [4], 0.19 µM.

As for STTETADPK [Peptide 88.0441], the IC50 was 3.58 µM in test [1], 0.017 µM in test [2], 0.074 µM in test [3] and greater than 20 µM in test [4].

Turning to YSVYGTTLEK [Peptide 78.0054], the IC50 in test [1] was greater than 20 µM; in test [2] it was 0.1 µM; in test [3] it was 0.036 µM; in test [4] it was greater than 20 µM.

In the case of SFFSRTWCK [Peptide 88.0363], the IC50 in test [1] came out at 0.012 µM; in test [2] it was 0.016 µM; in test [3] it was 0.066 µM; in test [4], 0.004 µM.

In the case of KGLGISYGR [Peptide 1577.30], the concentration for half-maximal inhibition (IC50) in test [1] is 0.0014 µM; in test [2], 0.415 µM; in test [3] it was greater than 20 µM; in test [4] it was greater than 20 µM.

On to AIRKAILGHR [Peptide 9017.0223], for which the IC50 amounted to 0.025 µM in test [1], 12.6 µM in test [2], 7.73 µM in test [3] and 1.52 µM in test [4].

Take KLTEDRWNK [Peptide 9017.0108]: the IC50 in test [1] is 0.055 µM; in test [2], 0.042 µM; in test [3] it was greater than 20 µM; in test [4], greater than 20 µM.

Consider GILRQRRAR [Peptide 9017.0114], for which the IC50 amounted to 0.177 µM in test [1], 0.672 µM in test [2], 1.48 µM in test [3] and 3.19 µM in test [4].

GQVNCKGIYY [Peptide 88.0209]: the half-inhibitory concentration (IC50) in test [1] was 2.76 µM; in test [2], 0.168 µM; in test [3], greater than 20 µM; in test [4], greater than 20 µM.

SVFQNLQVIK [Peptide 9012.0231]: the concentration for half-maximal inhibition (IC50) was found to be 3.56 µM in test [1], 0.011 µM in test [2], 0.016 µM in test [3] and 6.22 µM in test [4].

For the compound DFISFLSYFK [Peptide 88.0188], the half-maximal inhibitory concentration (IC50) turned out to be 2.63 µM in test [1], 0.03 µM in test [2], 0.0015 µM in test [3] and 0.0057 µM in test [4].

Consider GQVDYYGLYY [Peptide 1589.02], for which the IC50 in test [1] was 5.4 µM; in test [2], 0.053 µM; in test [3], greater than 20 µM; in test [4], greater than 20 µM.

Consider TFPNPFPFDK [Peptide 88.0162], for which the IC50 in test [1] amounted to 2.26 µM; in test [2], 0.221 µM; in test [3], 1.11 µM; in test [4] it was 1.83 µM.

Turning to TTLEKLTNK [Peptide 78.0283], the 50% inhibitory concentration (IC50) in test [1] is 0.598 µM; in test [2], 0.042 µM; in test [3], 2.56 µM; in test [4], 0.469 µM.

In the case of EQMLIQPPK [Peptide 88.0378], the half-inhibitory concentration (IC50) in test [1] is greater than 20 µM; in test [2], 0.079 µM; in test [3], 0.732 µM; in test [4], 0.831 µM.

As for LTALIKPKK [Peptide 9017.0100], the IC50 in test [1] was 2.48 µM; in test [2] it was 0.071 µM; in test [3], 0.027 µM; in test [4], 1.11 µM.

On to TLSAELPK [Peptide 1556.24], for which the concentration for half-maximal inhibition (IC50) is greater than 20 µM in test [1], 0.102 µM in test [2], greater than 20 µM in test [3] and greater than 20 µM in test [4].

As for VLCTYSPALNK [Peptide 1556.36], the IC50 in test [1] was 4.8 µM; in test [2] it was 0.15 µM; in test [3], 14.7 µM; in test [4] it was greater than 20 µM.
